Experimental data as given in US20230233533A1, “COMPOSITIONS, METHODS OF TREATING AND PREVENTING FUNGAL INFECTIONS, AND METHODS OF INHIBITING PRP8 INTEIN EXPRESSION” (Health Research, Inc., priority 2020, published 2023).
pIC50: −log10 of the molar value. In brackets after ≈: the same amount, converted by molar mass.

Columns and labels:
[1] = target: T1, Prp8 intein (Cryptococcus gattii, UniProt E6R027); assay: Split Cys-free (Cf) GFP-Prp8 intein splicing assay; format: biochemical; conditions: read-out: IC50 CfGFP-Prp8 (converted)
Description: (§1) The constructs for Cys-free (Cf) GFP-Prp8 and Cys-free nanoluciferase NnLuc-Prp8 were codon-optimized, synthesized, and cloned into the pET28a vector using the NcoI and XhoI sites by Gene Universal (Gene Universal, Newark Del.). […] The expression, refolding and purification of the CfGFP-Prp8 and NnLuc-Prp8 fusion proteins were carried out as described previously. […] Microbes. Infect.
Split GFP-Prp8 and CJGFP-Prp8 intein splicing assays—Using black and clear bottom 96-well plates, the DPNB-treated, -refolded and -concentrated GFP-Prp8 or CfGFP-Prp8 fusion protein (0.5 μM) was incubated with compounds or Dimethylsulfoxide (DMSO) solvent control for 30 min at 25° C. in a 100 μl intein splicing buffer (20 mM Bis-tris propane, 0.5 M NaCl, 0.5 M arginine, 1 mM EDTA, and 0.05% CHAPS). Then 100 μl 2×TCEP was added to a final concentration of 20 μM. The reactions were incubated at 25° C. overnight. […] Two readings were taken, one prior to addition of TCEP (I0) and one after incubation overnight with TCEP (If). Fluorescence/luminescence differences (ΔFluorescence or ΔLuminescence) were defined as If−I0 for each well. […] DMSO control served as 100% splicing activity.

[2] = target: T1, Prp8 intein; assay: Split nanoluciferase NnLuc-Prp8 intein splicing assay; format: biochemical
Description: as §1
Split luciferase RLuc-Prp8 and NnLuc-Prp8 intein splicing assays—The split RLuc-Prp8 intein splicing assay was carried out and monitored using a Veritas luminometer, as described previously. […] Microbes. Infect. […] For NnLuc-Prp8 intein splicing assay, the NnLuc-prp8 is diluted in assay buffer (50 mM Tris, 0.1% BSA, 1 mM EDTA, pH 7.4) and 50 ul is added to each well in 96 well black plates. Test molecules or the solvent was added and incubated for 30 to 60 min. A splicing inducer TCEP (50 ul, 100 μM) is added and incubated for 24 h. Luciferase substrate (Furimazine, 25 ul 1:10,000 diluted) is added and luminescence is read using a luminescence reader. IC50 is calculated using Graphpad prism.

[3] = in vitro; format: cell-based, human; conditions: human, CC50 A549
Description: Cytotoxicity—Cytotoxicity assays were carried out using human lung carcinoma cell line A549, as described (Chen et al., “Selective Inhibition of the West Nile Virus Methyltransferase by Nucleoside Analogs,” Antiviral Research 97(3):232-239 (2013), which is hereby incorporated by reference in its entirety). Briefly, the A549 cells (5×10^3) were incubated with/without compounds in a 96-well plate at 37° C. for 48 h. Cell viability was determined using the MTT assay (ATCC) as was described previously (Chen et al., “Selective Inhibition of the West Nile Virus Methyltransferase by Nucleoside Analogs,” Antiviral Research 97(3):232-239 (2013) and Brecher et al., “Identification and Characterization of Novel Broad-Spectrum Inhibitors of the Flavivirus Methyltransferase,” ACS Infectious Diseases 1(8):340-349 (2015), both of which are hereby incorporated by reference in their entirety). N=3.
Cytotoxicity—Cytotoxicity assays were carried out using human lung carcinoma cell line A549, as described. Chen et al., “Selective Inhibition of the West Nile Virus Methyltransferase by Nucleoside Analogs,” Antiviral Res. 97:232-9 (2013), which is hereby incorporated by reference in its entirety. Briefly, the A549 cells (5×10^3) were incubated with/without compounds in a 96-well plate at 37° C. for 48 h. Cell viability was determined using the MTT assay (ATCC) as was described previously (Chen et al., “Selective Inhibition of the West Nile Virus Methyltransferase by Nucleoside Analogs,” Antiviral Research 97(3):232-239 (2013) and Brecher et al., “Identification and Characterization of Novel Broad-Spectrum Inhibitors of the Flavivirus Methyltransferase,” ACS Infectious Diseases 1(8):340-349 (2015), both of which are hereby incorporated by reference in their entirety). N=3.

[4] = system: C. neoformans H99 strain; assay: Fungal susceptibility test, broth microdilution MIC; format: cell-based, Cryptococcus neoformans; conditions: Cryptococcus neoformans, H99STRAIN; C. neoformans H99, microbroth dilution; read-out: MIC H99
Description: Fungal susceptibility test—The fungal susceptibility test was carried out with a compound concentration series as described. […] The broth microdilution method was used to determine the compound MIC values against C. neoformans.
Fungal susceptibility test—The fungal susceptibility test was carried out with a compound concentration series as described. […] Microbes. Infect. […] The broth microdilution method was used to determine the compound MIC values against C. neoformans.

T1 sequence (E6R027 entry or part of it): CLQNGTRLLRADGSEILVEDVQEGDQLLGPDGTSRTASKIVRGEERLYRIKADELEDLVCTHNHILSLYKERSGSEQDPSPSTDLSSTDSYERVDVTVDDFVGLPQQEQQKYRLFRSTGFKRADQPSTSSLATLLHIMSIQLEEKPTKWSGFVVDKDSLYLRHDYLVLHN

Compound `O=C(Nc1cc(F)cc(C(F)(F)F)c1)c1nnsc1S(=O)(=O)c1ccc(Cl)cc1` [JMX1040, 5-((4-chlorophenyl)sulfonyl)-N-(3-fluoro-5-(trifluoromethyl)phenyl)-1,2,3-thiadiazole-4-carboxamide] has an IC50 [1] of 32.8 µM, a pIC50 [2] of 4.69 and a CC50 at 48 h [3] of 56.3 µM. The MIC [4] was 3.12 µM (≈ 1.45 µg/mL).

Work on `O=C(Nc1ccccc1F)c1nnsc1S(=O)(=O)c1ccc(Cl)cc1` [JMX872, 5-((4-Chlorophenyl)sulfonyl)-N-(2-fluorophenyl)-1,2,3-thiadiazole-4-carboxamide] yielded an IC50 [1] of 28.3 µM, a pIC50 [2] of 4.50 and a CC50 at 48 h [3] of 162 µM. The MIC [4] was greater than 50 µM.

Work on `O=C(Nc1ccc(F)cc1)c1nnsc1[S+]([O-])c1cccc(C(F)(F)F)c1` (stereo not shown) [JMX1063-2, N-(4-Fluorophenyl)-5-((3-(trifluoromethyl)phenyl)sulfinyl)-1,2,3-thiadiazole-4-carboxamide] yielded an IC50 [1] of 29.2 µM, a pIC50 [2] of 4.91 and a CC50 at 48 h [3] of 93.8 µM. The MIC [4] was 6.25 µM (≈ 2.6 µg/mL).

With `O=C(Nc1ccc(C(F)(F)F)cc1Cl)c1nnsc1S(=O)(=O)c1ccc(Cl)cc1` [JMX1042, N-(2-Chloro-4-(trifluoromethyl)phenyl)-5-((4-chlorophenyl)sulfonyl)-1,2,3-thiadiazole-4-carboxamide] the IC50 [1] was 41.5 µM, the pIC50 [2] was 4.96 and the CC50 at 48 h [3] was 98.7 µM. It also gave an MIC [4] greater than 50 µM.

In the case of `O=C(Nc1ccc(Cl)c(F)c1)c1nnsc1[S+]([O-])c1ccc(Cl)cc1` (stereo not shown) [JMX1046-2, N-(4-Chloro-3-fluorophenyl)-5-((4-chlorophenyl)sulfinyl)-1,2,3-thiadiazole-4-carboxamide], the IC50 [1] was 32.2 µM, the pIC50 [2] was 5.12 and the CC50 at 48 h [3] was 149 µM. The MIC [4] was 1.56 µM (≈ 0.649 µg/mL).

`O=C(Nc1ccc([N+](=O)[O-])cc1F)c1nnsc1S(=O)(=O)c1ccc(Cl)cc1` [JMX1043, 5-((4-Chlorophenyl)sulfonyl)-N-(2-fluoro-4-nitrophenyl)-1,2,3-thiadiazole-4-carboxamide] showed an IC50 [1] of 38.1 µM, a pIC50 [2] of 4.71 and a CC50 at 48 h [3] of 66.9 µM. It also gave an MIC [4] greater than 50 µM.

For `O=C(Nc1cccc(F)c1)c1nnsc1S(=O)(=O)c1ccc(Cl)cc1` [JMX 871, 5-((4-Chlorophenyl)sulfonyl)-N-(3-fluorophenyl)-1,2,3-thiadiazole-4-carboxamide], the IC50 [1] was 35.4 µM, the pIC50 [2] was 4.57 and the CC50 at 48 h [3] was 140 µM. It also gave an MIC [4] of 3.12 µM (≈ 1.24 µg/mL).

Work on `O=C(Nc1cc(F)c(F)c(F)c1)c1nnsc1[S+]([O-])c1ccc(Cl)cc1` (stereo not shown) [JMX1044-2, 5-((4-Chlorophenyl)sulfinyl)-N-(3,4,5-trifluorophenyl)-1,2,3-thiadiazole-4-carboxamide] yielded an IC50 [1] of 26.9 µM, a pIC50 [2] of 5.36 and a CC50 at 48 h [3] of 47.5 µM. It also gave an MIC [4] greater than 50 µM.

With `Cc1ccc(NC(=O)c2nnsc2[S+]([O-])c2ccc(Cl)cc2)cc1` (stereo not shown) [JMX1033-2] the IC50 [1] was 47.3 µM, the pIC50 [2] was 5.42 and the CC50 at 48 h [3] was 74.6 µM. For the same compound, the MIC [4] was greater than 50 µM.

`O=C(Nc1cc(F)cc(F)c1)c1nnsc1S(=O)(=O)c1ccc(Cl)cc1` [JMX1038, 5-((4-Chlorophenyl)sulfonyl)-N-(3,5-difluorophenyl)-1,2,3-thiadiazole-4-carboxamide] gave an IC50 [1] of 37.1 µM, a pIC50 [2] of 4.43 and a CC50 at 48 h [3] of 54.2 µM. It also gave an MIC [4] greater than 50 µM.

In the case of `O=C(Nc1ccc(F)cc1)c1nnsc1S(=O)(=O)c1ccc(Cl)c(Cl)c1` [JMX1064, 5-((3,4-Dichlorophenyl)sulfonyl)-N-(4-fluorophenyl)-1,2,3-thiadiazole-4-carboxamide], the IC50 [1] was 32.6 µM, the pIC50 [2] was 4.59 and the CC50 at 48 h [3] was 78.4 µM. For the same compound, the MIC [4] was 1.56 µM (≈ 0.674 µg/mL).

Compound `O=C(Nc1cc(F)cc(Cl)c1)c1nnsc1S(=O)(=O)c1ccc(Cl)cc1` [JMX1036, N-(3-Chloro-5-fluorophenyl)-5-((4-chlorophenyl)sulfonyl)-1,2,3-thiadiazole-4-carboxamide] has an IC50 [1] of 32.9 µM, a pIC50 [2] of 4.67 and a CC50 at 48 h [3] of 70.9 µM. It also gave an MIC [4] of 1.56 µM (≈ 0.674 µg/mL).

`O=C(Nc1cc(F)c(F)c(F)c1)c1nnsc1S(=O)(=O)c1ccc(Cl)cc1` [JMX1044, 5-((4-Chlorophenyl)sulfonyl)-N-(3,4,5-trifluorophenyl)-1,2,3-thiadiazole-4-carboxamide] gave an IC50 [1] of 31.8 µM, a pIC50 [2] of 4.79 and a CC50 at 48 h [3] of 47.8 µM. For the same compound, the MIC [4] was greater than 50 µM.

With `O=C(Nc1ccc(F)cc1)c1nnsc1S(=O)(=O)c1cccc(C(F)(F)F)c1` [JMX1063, N-(4-Fluorophenyl)-5-((3-(trifluoromethyl)phenyl)sulfonyl)-1,2,3-thiadiazole-4-carboxamide] the IC50 [1] was 35 µM, the pIC50 [2] was 4.55 and the CC50 at 48 h [3] was 137 µM. The MIC [4] was 6.25 µM (≈ 2.7 µg/mL).

`O=C(Nc1ccc(Cl)c(F)c1)c1nnsc1S(=O)(=O)c1ccc(Cl)cc1` [JMX1046, N-(4-Chloro-3-fluorophenyl)-5-((4-chlorophenyl)sulfonyl)-1,2,3-thiadiazole-4-carboxamide] showed an IC50 [1] of 34.1 µM, a pIC50 [2] of 4.70 and a CC50 at 48 h [3] of 145 µM. For the same compound, the MIC [4] was greater than 50 µM.

For `O=C(Nc1c(F)cc(F)cc1F)c1nnsc1[S+]([O-])c1ccc(Cl)cc1` (stereo not shown) [JMX1045-2, 5-((4-Chlorophenyl)sulfinyl)-N-(2,4,6-trifluorophenyl)-1,2,3-thiadiazole-4-carboxamide], the IC50 [1] was 27.4 µM, the pIC50 [2] was 5.07 and the CC50 at 48 h [3] was 61 µM. It also gave an MIC [4] of 3.12 µM (≈ 1.3 µg/mL).

Work on `O=C(Nc1ccc(F)cc1)c1nnsc1S(=O)(=O)c1ccc(F)cc1F` [JMX1062, 5-((2,4-Difluorophenyl)sulfonyl)-N-(4-fluorophenyl)-1,2,3-thiadiazole-4-carboxamide] yielded an IC50 [1] of 38.2 µM, a pIC50 [2] of 4.66 and a CC50 at 48 h [3] of 65.4 µM. It also gave an MIC [4] greater than 50 µM.

For `O=C(Nc1ccc(F)cc1)c1nnsc1S(=O)(=O)c1ccc(F)cc1` [JMX1061, N-(4-Fluorophenyl)-5-((4-fluorophenyl)sulfonyl)-1,2,3-thiadiazole-4-carboxamide], the IC50 [1] was 51.3 µM, the pIC50 [2] was 4.63 and the CC50 at 48 h [3] was 71.7 µM. For the same compound, the MIC [4] was greater than 50 µM.

`O=C(Nc1ccc(F)cc1)c1nnsc1S(=O)(=O)c1ccc(Cl)cc1Cl` [JMX1059, 5-((2,4-Dichlorophenyl)sulfonyl)-N-(4-fluorophenyl)-1,2,3-thiadiazole-4-carboxamide] showed an IC50 [1] of 31.9 µM, a pIC50 [2] of 4.68 and a CC50 at 48 h [3] of 68.1 µM. It also gave an MIC [4] of 12.5 µM (≈ 5.4 µg/mL).

`Cc1ccc(NC(=O)c2nnsc2S(=O)(=O)c2ccc(Cl)cc2)cc1` [JMX1033, 5-((4-chlorophenyl)sulfonyl)-N-(p-tolyl)-1,2,3-thiadiazole-4-carboxamide] showed an IC50 [1] of 35.2 µM, a pIC50 [2] of 4.34 and a CC50 at 48 h [3] of 156 µM. It also gave an MIC [4] greater than 50 µM.

For `O=C(Nc1ccccc1)c1nnsc1S(=O)(=O)c1ccc(Cl)cc1` [JMX1035, 5-((4-Chlorophenyl)sulfonyl)-N-phenyl-1,2,3-thiadiazole-4-carboxamide], the IC50 [1] was 38.4 µM, the pIC50 [2] was 4.47 and the CC50 at 48 h [3] was 84.1 µM. It also gave an MIC [4] of 6.25 µM (≈ 2.37 µg/mL).

`O=C(Nc1ccc(F)cc1)c1nnsc1[S+]([O-])c1ccc(Cl)c(Cl)c1` (stereo not shown) [JMX1064-2, 5-((3,4-Dichlorophenyl)sulfinyl)-N-(4-fluorophenyl)-1,2,3-thiadiazole-4-carboxamide] gave an IC50 [1] of 19.8 µM, a pIC50 [2] of 4.46 and a CC50 at 48 h [3] of 122 µM. For the same compound, the MIC [4] was greater than 50 µM.
